From patent publication US20090087497A1, “Compositions and methods for treating symptoms of aging” (Burnham Institute for Medical Research, priority 2007, published 2009)

Key:
[1] = test system: flies; assay: Development of flies under doxycycline; type: in vivo, Drosophila
[2] = test system: mice; conditions: 2 mg/ml in the drinking water, chronic; cited from earlier work
[3] = test system: Drosophila melanogaster; assay: Screen of individual and combined compounds on age-related physiological parameters (maximal heart rate and exercise capacity); type: in vivo; conditions: separate study of the five best combinations with larger number of flies; FIG. 3
Excerpt: The first dataset of combined interventions. We performed an initial screen of compounds for their effects on cardiac aging in Drosophila, selected for their very general effects on multiple biological functions, known low toxicity and, for some, known effects on aging in other models (Wood et al., Nature 430:686-689, 2004).
After screening 44 compounds individually at multiple doses (a total of 300 groups, each composed of 10-20 flies), we chose two doses each of four compounds for more comprehensive measurements of their combined effects on three age-related phenotypes: maximal heart rate and exercise capacity declines with age and survival. […]

Row | Structure (SMILES) | effect on development in flies [1] | effect on body weight [2] | plasma levels [2] | functional improvement confirmed in additional tests (climbing velocity and maximal heart rate) [3]
1 | C[C@H]1c2cccc(O)c2C(=O)C2=C(O)[C@]3(O)C(=O)C(C(N)=O)=C(O)[C@@H](N(C)C)[C@@H]3[C@@H](O)[C@@H]21 [doxycycline] | slows development | no effect | close to saturation | –
2 | Oc1ccc(C=Cc2cc(O)cc(O)c2)cc1 [resveratrol] | – | – | – | not
